Values of other authors in patent publication US7985432B2, “Insect repellent” (Bioniche Life Sciences, Inc., priority 2003, dated 2011).

Test system: Mosquitoes

CC1=COC(=O)C2C(C)CCC12 (stereo not shown) [Nepetalactone]
Effectiveness at repelling mosquitoes relative to DEET: about ten times more effective at repelling mosquitoes than DEET
